Tested on: PTH release
Experiment: not given
Settings: rat PTH (1-34) 5 μg/kg, OVX rat; cited from earlier work

Compound	blood PTH concentration peak in 30 minutes	time for blood PTH concentration to return to the original level [h]
rat PTH (1-34): rat parathyroid hormone fragment (1-34) administered to OVX rat	about 175 pg/ml	2

Biological target: T1, CYP2D6 (Homo sapiens, UniProt P10635)
T1 construct: purchased BD Bioscience
Experiment: Metabolic enzyme CYP2D6 inhibitory activity (BD Bioscience kit)
Format: in vitro ADME
Settings: enzyme activity free of test compound as 100%; read-out: CYP2D6 IC50 (concentration showing 50% inhibition)
Procedure: Metabolic Enzyme CYP2D6 Inhibitory Activity
Using a metabolic enzyme CYP2D6 inhibition measurement kit (BD Bioscience) and following the manual of the kit, the inhibitory activity of the test compound was measured. With the enzyme activity free of the test compound as 100%, the concentration (IC50) showing 50% inhibition was determined. The results are shown in Table 8, wherein “>10” means over 10 μM.

T1 sequence (P10635 whole entry): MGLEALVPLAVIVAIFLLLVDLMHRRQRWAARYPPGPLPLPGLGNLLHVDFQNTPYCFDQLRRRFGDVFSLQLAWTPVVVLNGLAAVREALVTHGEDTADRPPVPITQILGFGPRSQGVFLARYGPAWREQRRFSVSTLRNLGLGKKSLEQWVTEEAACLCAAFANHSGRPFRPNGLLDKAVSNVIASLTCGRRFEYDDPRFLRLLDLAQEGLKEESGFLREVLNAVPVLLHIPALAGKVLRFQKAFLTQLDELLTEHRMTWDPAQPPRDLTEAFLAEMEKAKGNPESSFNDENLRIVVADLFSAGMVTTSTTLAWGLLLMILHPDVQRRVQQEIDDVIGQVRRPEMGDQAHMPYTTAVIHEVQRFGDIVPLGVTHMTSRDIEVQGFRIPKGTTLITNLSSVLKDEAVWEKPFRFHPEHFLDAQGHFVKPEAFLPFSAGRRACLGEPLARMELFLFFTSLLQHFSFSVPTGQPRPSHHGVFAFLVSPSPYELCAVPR

Compound	IC50 [µM]
CC(OC[C@H](O)CNC(C)(C)Cc1ccc2ccccc2c1)c1ccccc1-c1ccc(C(=O)NS(C)(=O)=O)cc1 (stereo partly drawn) [Example 18]	8

Tested on: PTH secretion
Experiment: PTH secretagogue action, oral administration to fasted male SD rats, serum PTH by ELISA
Format: in vivo, rat
Settings: 3 mg/kg oral, test compound administration group
Procedure: The test compound was orally administered to 5 to 9-week-old male SD rats (Charles River Japan, Inc.) fasted for 20 hr, using a solvent (0.5% aqueous methyl cellulose solution) at a dose of 3 mg/5 ml/kg or 30 mg/5 ml/kg. A solvent alone was orally administered to the control group at a dose of 5 ml/kg. The blood was drawn from the tail vein 15 min, 30 min, 60 min and 120 min after the administration of the test compound, and serum was obtained. The serum PTH concentration was measured using rat PTH ELISA kit (Amersham Biosciences).

Compound	serum PTH concentration 15 min later [pg/mL]	serum PTH concentration 30 min later [pg/mL]	serum PTH concentration 60 min later [pg/mL]	serum PTH concentration 120 min later [pg/mL]
C[C@@H](OC[C@H](O)CNC(C)(C)Cc1ccc2ccccc2c1)c1ccccc1-c1cccc(CC(=O)O)c1 [Example 4, [2′-[(1R)-1-[(2R)-2-hydroxy-3-[[2-methyl-1-(naphthalen-2-yl)propan-2-yl]amino]propoxy]ethyl]biphenyl-3-yl]acetic acid]	22.71 ± 2.52	22.83 ± 2.91	13.69 ± 2.09	11.76 ± 1.24
C[C@@H](OC[C@H](O)CNC(C)(C)Cc1ccc2ccccc2c1)c1ccccc1CCCCC(=O)O [Example 25]	19.16 ± 4.05	18.15 ± 3.15		

Same assay, conditions: 30 mg/kg oral, test compound administration group

Compound	serum PTH concentration 30 min later [pg/mL]	serum PTH concentration 60 min later [pg/mL]
Cc1ccccc1[C@H](OC[C@@H](CNC(C)(C)Cc1ccc2ccccc2c1)OC(=O)/C=C\C(=O)O)C1CC1 [Example 6, (Z)-butenedioic acid mono-[(2R)-1-[(1R)-(cyclopropyl)-(2-methylphenyl)methoxy]-3-[[2-methyl-1-(naphthalen-2-yl)propan-2-yl]amino]propan-2-yl]ester]	14.45 ± 1.45	13.91 ± 1.62

Biological target: T2, human calcium receptor (Homo sapiens, UniProt P41180)
T2 construct: expressed in transfected cells; host or cells: cell strain derived from rat adrenal, co-transfected with luciferase cDNA
T2 sequence (P41180 20-1078): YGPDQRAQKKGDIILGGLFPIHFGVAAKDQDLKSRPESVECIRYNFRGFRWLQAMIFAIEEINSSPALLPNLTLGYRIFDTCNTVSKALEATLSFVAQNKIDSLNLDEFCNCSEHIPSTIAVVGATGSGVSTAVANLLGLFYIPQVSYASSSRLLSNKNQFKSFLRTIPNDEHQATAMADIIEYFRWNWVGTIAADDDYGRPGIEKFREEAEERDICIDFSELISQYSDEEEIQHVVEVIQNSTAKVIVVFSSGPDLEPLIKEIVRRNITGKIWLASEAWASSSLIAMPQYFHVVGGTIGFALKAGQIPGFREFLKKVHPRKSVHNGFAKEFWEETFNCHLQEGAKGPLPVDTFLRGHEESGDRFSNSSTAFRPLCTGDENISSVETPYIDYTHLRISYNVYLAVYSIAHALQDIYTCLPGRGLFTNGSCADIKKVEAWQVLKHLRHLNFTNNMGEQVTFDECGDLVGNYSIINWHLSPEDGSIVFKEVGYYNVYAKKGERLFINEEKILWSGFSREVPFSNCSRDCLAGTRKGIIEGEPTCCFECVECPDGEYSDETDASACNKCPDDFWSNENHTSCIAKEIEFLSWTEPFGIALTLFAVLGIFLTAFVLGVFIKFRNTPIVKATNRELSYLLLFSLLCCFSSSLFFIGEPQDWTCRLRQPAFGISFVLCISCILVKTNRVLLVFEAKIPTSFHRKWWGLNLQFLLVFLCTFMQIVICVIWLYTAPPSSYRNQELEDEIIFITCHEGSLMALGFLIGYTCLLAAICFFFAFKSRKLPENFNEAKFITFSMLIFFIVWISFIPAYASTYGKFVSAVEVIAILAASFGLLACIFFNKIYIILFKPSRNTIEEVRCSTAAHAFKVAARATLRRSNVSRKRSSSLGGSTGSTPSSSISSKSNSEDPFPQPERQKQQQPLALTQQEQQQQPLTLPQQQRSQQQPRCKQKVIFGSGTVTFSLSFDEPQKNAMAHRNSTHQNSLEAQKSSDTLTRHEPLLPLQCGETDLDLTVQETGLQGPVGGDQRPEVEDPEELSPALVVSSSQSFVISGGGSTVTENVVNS
Experiment: Evaluation of antagonistic action on calcium receptor using reporter gene (luciferase)
Format: cell-based
Settings: rat adrenal derived cells with luciferase and human calcium receptor cDNA, 5 mM calcium chloride, 4 hrs; read-out: IC50 (concentration showing 50% inhibitory rate of luciferase activity)
Procedure: Evaluation of Antagonistic Action on Calcium Receptor Using Reporter Gene
Luciferase cDNA and human calcium receptor cDNA were introduced into a cell strain derived from rat adrenal to transform the cells, and the transformed cells were cultured in a medium (80 μl, F12 medium containing 0.5% dialyzed horse serum and 0.25% dialyzed bovine fetal serum). A dimethyl sulfoxide solution containing a test compound at 0.1-10000 μM was diluted 100-fold with the medium and added to the test compound group at 10 μl per well (final concentration of dimethyl sulfoxide is 0.1%). In the same manner as in test compound group, dimethyl sulfoxide diluted 100-fold with medium was added to a control group and a blank group. Then, 50 mM calcium chloride-containing medium was added to every well except the blank group at 10 μl per well (final concentration is 5 mM). A medium alone was added to the blank group. After culture for 4 hrs, luciferase substrate was added and the luciferase activity was measured with a photoluminometer. The inhibitory rate (%) was calculated from the obtained measured values according to the following formula.
Based on the results, the concentration (IC50) showing 50% inhibitory rate was determined.

Compound	IC50 [nM]
CCOP(=O)(O)c1ccc(-c2ccccc2C(C)OC[C@H](O)CNC(C)(C)Cc2ccc3ccccc3c2)cc1 (stereo partly drawn) [Example 21]	15
CC(OC[C@H](O)CNC(C)(C)Cc1ccc2ccccc2c1)c1ccccc1-c1ccc(C(=O)NS(C)(=O)=O)cc1 (stereo partly drawn) [Example 18]	22
C[C@@H](OC[C@H](O)CNC(C)(C)Cc1ccc2ccccc2c1)c1ccccc1-c1cccc(CC(=O)O)c1 [Example 4, [2′-[(1R)-1-[(2R)-2-hydroxy-3-[[2-methyl-1-(naphthalen-2-yl)propan-2-yl]amino]propoxy]ethyl]biphenyl-3-yl]acetic acid]	11
CC(OC[C@H](O)CNC(C)(C)Cc1ccc2ccccc2c1)c1ccccc1-c1ccc(CC(N)=O)cc1 (stereo partly drawn) [Example 15]	145
C[C@@H](OC[C@H](O)CNC(C)(C)Cc1ccc2ccccc2c1)c1ccccc1-c1ccc(C(=O)NO)cc1 [Example 17]	104
C[C@@H](OC[C@H](O)CNC(C)(C)Cc1ccc2ccccc2c1)c1ccccc1-c1ccc(N)cc1 [Example 29]	55
CC(OC[C@H](O)CNC(C)(C)Cc1ccc2ccccc2c1)c1ccccc1C#CC(=O)O (stereo partly drawn) [Example 10, [2-[1-[(2R)-2-hydroxy-3-[[2-methyl-1-(naphthalen-2-yl)propan-2-yl]amino]propoxy]ethyl]phenyl]propynoic acid]	23
CC(OC[C@H](O)CNC(C)(C)Cc1ccc2ccccc2c1)c1ccccc1OCCCCC(=O)O (stereo partly drawn) [Example 26]	190
CC(OC[C@H](O)CNC(C)(C)Cc1ccc2ccccc2c1)c1ccccc1-c1ccc(-c2nsc(=O)[nH]2)cc1 (stereo partly drawn) [Example 16]	135
CC(OC[C@H](O)CNC(C)(C)Cc1ccc2ccccc2c1)c1ccccc1-c1ccc(-c2nc(=O)o[nH]2)cc1 (stereo partly drawn) [Example 19]	18
C[C@@H](OC[C@H](O)CNC(C)(C)Cc1ccc2ccccc2c1)c1ccccc1CCCCC(=O)O [Example 25]	18
CCOP(=O)(O)c1ccc(-c2ccccc2[C@@H](C)OC[C@H](O)CNC(C)(C)Cc2ccc3ccccc3c2)cc1 [Example 11, Monoethyl [2′-[(1R)-1-[(2R)-2-hydroxy-3-[[2-methyl-1-(naphthalen-2-yl)propan-2-yl]amino]propoxy]ethyl]biphenyl-4-yl]phosphonate]	8
CC(OC(=O)OC1CCCCC1)OC(=O)c1ccc(-c2ccccc2C(C)OC[C@H](O)CNC(C)(C)Cc2ccc3ccccc3c2)cc1 (stereo partly drawn) [Example 8, 1-(cyclohexyloxycarbonyloxy)ethyl 2′-[1-[(2R)-2-hydroxy-3-[[2-methyl-1-(naphthalen-2-yl)propan-2-yl]amino]propoxy]ethyl]biphenyl-4-carboxylate]	21
CC(OC[C@H](O)CNC(C)(C)Cc1ccc2ccccc2c1)c1ccccc1-c1ccc(C(=O)O)s1 (stereo partly drawn) [Example 9, 5-[2-[1-[(2R)-2-hydroxy-3-[[2-methyl-1-(naphthalen-2-yl)propan-2-yl]amino]propoxy]ethyl]phenyl]thiophene-2-carboxylic acid]	14
CC(OC[C@H](O)CNC(C)(C)Cc1ccc2ccccc2c1)c1ccccc1-c1ccc(C(N)=O)cc1 (stereo partly drawn) [Example 20]	30
Cc1ccccc1[C@H](OC[C@@H](CNC(C)(C)Cc1ccc2ccccc2c1)OC(=O)/C=C\C(=O)O)C1CC1 [Example 6, (Z)-butenedioic acid mono-[(2R)-1-[(1R)-(cyclopropyl)-(2-methylphenyl)methoxy]-3-[[2-methyl-1-(naphthalen-2-yl)propan-2-yl]amino]propan-2-yl]ester]	79
C[C@@H](OC[C@H](O)CNC(C)(C)Cc1ccc2ccccc2c1)c1ccccc1OCCCC(=O)O [Example 24]	246
CCOC(=O)Cc1ccc(-c2ccccc2C(C)OC[C@H](O)CNC(C)(C)Cc2ccc3ccccc3c2)cc1 (stereo partly drawn) [Example 13]	160
C[C@@H](OC[C@H](O)CNC(C)(C)Cc1ccc2ccccc2c1)c1ccccc1-c1ccc([N+](=O)[O-])cc1 [Example 28]	254
Cc1ccc(CC(C)(C)NC[C@@H](O)CO[C@H](C)c2ccccc2OCc2ccc(C(=O)O)s2)cc1F [Example 30]	183
CC(OC[C@H](O)CNC(C)(C)Cc1ccc2ccccc2c1)c1ccccc1-c1ccc(CC(=O)O)cc1 (stereo partly drawn) [Example 14]	119
C[C@@H](OC[C@H](O)CNC(C)(C)Cc1ccc2ccccc2c1)c1ccccc1/C=C/C(=O)O [Example 23]	16
C=Cc1ccc(CC(C)(C)NC[C@@H](O)CO[C@H](C)c2ccccc2-c2ccc(C(=O)O)cc2)cc1 [Example 27]	14
C[C@@H](OC[C@H](O)CNC(C)(C)Cc1ccc2ccccc2c1)c1ccccc1CCCCCC(=O)O [Example 2, 6-[2-[(1R)-1-[(2R)-2-hydroxy-3-[[2-methyl-1-(naphthalen-2-yl)propan-2-yl]amino]propoxy]ethyl]phenyl]hexanoic acid]	14
CC(OC[C@H](O)CNC(C)(C)Cc1ccc2ccccc2c1)c1ccccc1-c1ccc(-c2nnn[nH]2)cc1 (stereo partly drawn) [Example 7, (R)-3-[[2-methyl-1-(naphthalen-2-yl)propan-2-yl]amino]-1-[1-[4′-(1H-tetrazol-5-yl)biphenyl-2-yl]ethoxy]propan-2-ol]	11
CC(=O)NCc1ccc(-c2ccccc2[C@@H](C)OC[C@H](O)CNC(C)(C)Cc2ccc3ccccc3c2)cc1 [Example 5, N-[[2′-[(1R)-1-[(2R)-2-hydroxy-3-[[2-methyl-1-(naphthalen-2-yl)propan-2-yl]amino]propoxy]ethyl]biphenyl-4-yl]methyl]acetamide]	24
CC(OC[C@H](O)CNC(C)(C)Cc1ccc2ccccc2c1)c1ccccc1OCC(=O)O (stereo partly drawn) [Example 22]	237
CC(C)(Cc1ccc2ccccc2c1)NC[C@@H](O)COC(C1CC1)C1CC1 [Example 3, (2R)-1-dicyclopropylmethoxy-3-[[2-methyl-1-(naphthalen-2-yl)propan-2-yl]amino]propan-2-ol]	23

From US7285572B2, “CaSR antagonist” (Japan Tobacco Inc., priority 2003, dated 2007)
